Experiment [1] addresses T1, Tumor necrosis factor (Homo sapiens, UniProt P01375). Briefly: TNFa-triggered NF-kB activation inhibitors, SAR follow-up, cell-based, revised (AID 2337). It is filed as functional.
In experiment [2] the target is T2, Nucleotide-binding oligomerization domain-containing protein 1 (Homo sapiens, UniProt Q9Y239).
T2 sequence (Q9Y239 whole entry): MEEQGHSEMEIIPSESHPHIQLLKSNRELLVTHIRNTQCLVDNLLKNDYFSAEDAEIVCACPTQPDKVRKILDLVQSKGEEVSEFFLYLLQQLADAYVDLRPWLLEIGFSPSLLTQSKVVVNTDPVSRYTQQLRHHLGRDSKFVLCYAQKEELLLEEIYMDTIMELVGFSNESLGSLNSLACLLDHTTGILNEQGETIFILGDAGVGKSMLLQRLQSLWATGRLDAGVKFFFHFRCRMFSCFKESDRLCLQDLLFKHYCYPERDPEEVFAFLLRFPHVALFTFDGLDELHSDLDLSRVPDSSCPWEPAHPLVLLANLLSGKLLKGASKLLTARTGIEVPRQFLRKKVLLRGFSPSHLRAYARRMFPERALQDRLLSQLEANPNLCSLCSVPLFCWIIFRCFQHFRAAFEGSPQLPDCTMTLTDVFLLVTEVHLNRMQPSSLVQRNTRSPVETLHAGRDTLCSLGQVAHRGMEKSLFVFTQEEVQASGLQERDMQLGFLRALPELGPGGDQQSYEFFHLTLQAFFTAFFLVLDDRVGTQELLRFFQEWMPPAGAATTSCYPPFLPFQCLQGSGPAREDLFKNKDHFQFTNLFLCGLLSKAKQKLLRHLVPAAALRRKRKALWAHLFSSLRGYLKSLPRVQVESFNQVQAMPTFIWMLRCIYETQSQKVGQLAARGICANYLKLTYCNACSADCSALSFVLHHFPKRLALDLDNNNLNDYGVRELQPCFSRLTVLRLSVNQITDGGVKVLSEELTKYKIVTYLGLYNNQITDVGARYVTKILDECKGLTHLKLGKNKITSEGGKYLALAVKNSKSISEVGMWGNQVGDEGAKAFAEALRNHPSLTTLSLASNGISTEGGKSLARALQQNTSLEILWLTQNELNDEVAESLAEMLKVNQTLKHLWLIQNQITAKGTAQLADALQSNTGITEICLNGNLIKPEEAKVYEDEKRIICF
Briefly: NOD1 signaling inhibitors, SAR follow-up, revised (AID 2333). The class given is functional.

Experiment [3] concerns HEK293. Briefly: cells. To be noted: Homo sapiens.
The subject of experiment [4] is Vero. Briefly: cells. The class given is functional, cell-based. To be noted: Chlorocebus sabaeus.
Experiment [5] has as its system Vero. Briefly: cells. To be noted: Chlorocebus sabaeus. The class given is functional.
A further experiment deals with HeLa. Briefly: HeLa cell cytotoxicity, dose response, cytotoxicity control, 24 h, cherry-picked samples (AID 504726).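 Also: potency for cytotoxicity as loss of luminescence signal.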 The class given is functional, cell-based. To be noted: Homo sapiens.
The target of a further experiment is T3, ORF 73 (Human herpesvirus 8, UniProt O40947).
T3 sequence (O40947 whole entry): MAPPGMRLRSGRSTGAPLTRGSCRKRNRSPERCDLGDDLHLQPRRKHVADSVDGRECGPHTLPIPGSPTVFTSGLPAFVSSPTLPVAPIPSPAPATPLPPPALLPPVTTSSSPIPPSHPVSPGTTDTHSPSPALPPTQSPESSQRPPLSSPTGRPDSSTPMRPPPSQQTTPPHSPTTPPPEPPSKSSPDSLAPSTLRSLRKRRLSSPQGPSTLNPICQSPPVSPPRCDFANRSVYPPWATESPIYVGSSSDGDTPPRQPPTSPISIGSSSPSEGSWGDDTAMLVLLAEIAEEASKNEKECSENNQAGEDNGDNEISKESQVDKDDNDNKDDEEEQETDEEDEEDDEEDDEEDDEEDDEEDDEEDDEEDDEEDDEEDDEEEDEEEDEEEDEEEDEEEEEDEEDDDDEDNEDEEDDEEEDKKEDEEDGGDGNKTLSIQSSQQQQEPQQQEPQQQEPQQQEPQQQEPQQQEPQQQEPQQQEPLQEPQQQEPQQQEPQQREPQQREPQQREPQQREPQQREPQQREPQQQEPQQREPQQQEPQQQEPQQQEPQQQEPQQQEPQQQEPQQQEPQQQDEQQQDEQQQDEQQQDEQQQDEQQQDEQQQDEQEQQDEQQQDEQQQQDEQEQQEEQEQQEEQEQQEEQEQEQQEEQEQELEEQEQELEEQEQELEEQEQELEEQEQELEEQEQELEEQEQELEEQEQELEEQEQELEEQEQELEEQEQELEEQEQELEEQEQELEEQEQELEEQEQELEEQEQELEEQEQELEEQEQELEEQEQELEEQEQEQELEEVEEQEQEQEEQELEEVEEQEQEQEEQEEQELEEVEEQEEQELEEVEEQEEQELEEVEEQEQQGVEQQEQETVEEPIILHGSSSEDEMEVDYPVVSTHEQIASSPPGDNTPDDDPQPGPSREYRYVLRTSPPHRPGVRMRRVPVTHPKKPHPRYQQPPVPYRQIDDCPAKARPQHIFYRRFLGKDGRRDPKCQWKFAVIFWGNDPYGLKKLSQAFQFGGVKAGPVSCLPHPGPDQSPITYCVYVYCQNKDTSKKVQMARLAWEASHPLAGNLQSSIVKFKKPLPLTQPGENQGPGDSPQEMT
Briefly: inhibitors of C-LANA binding to LBS DNA, dose response, biochemical, fluorescence polarization, cherry-picked samples (AID 504725).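 Also: fluorescence polarization of a labeled DNA duplex reporting LANA DNA binding; potency is for inhibitors that block LANA binding to the DNA.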 Details: species or system Human gammaherpesvirus 8.

Another experiment has as its target Cytochrome P450 2D6 (Homo sapiens, UniProt P10635).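 Also: CYP2D6 member of a cytochrome P450 panel assay.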
The test system of experiment [6] is HEK293. Briefly: cells. To be noted: Homo sapiens. This is another data set of the same source.
Experiment [7] relates to HEK293. Briefly: cells. Particulars: Homo sapiens. The source holds these as a separate data set.
The target of experiment [8] is T2, Nucleotide-binding oligomerization domain-containing protein 1. Briefly: SAR analysis of compounds that inhibit NOD1 - Set 3. [Related pubchem assays (depositor defined):AID1566, AID1575, AID1578, AID1849, AID1852, AID2333, AID2335, AID2466]. The class given is functional.
Experiment [9] deals with T1, Tumor necrosis factor. Briefly: TNFa-triggered NF-kB activation inhibitors, SAR follow-up, cell-based, set 3 (AID 2801). The class given is functional.
The subject of experiment [10] is HEK293. Briefly: SAR analysis of compounds that are cytotoxic to HEK293 - Set 3. [Related pubchem assays (depositor defined):AID1575, AID1578, AID1848, AID1849, AID2001, AID2333, AID2334, AID2335, AID2337, AID2469]. Particulars: Homo sapiens. It is filed as functional, cell-based.
The target in experiment [11] is Nucleotide-binding oligomerization domain-containing protein 2 (Homo sapiens, UniProt Q9HC29). Briefly: NOD2 signaling inhibitors, analog potency, SAR follow-up, cell-based, set 3 (AID 2799). The class given is functional.
Experiment [12] is described as follows: inhibitors of firefly luciferase expression or activity, dose response, H4 neuroglioma cells, luminescence (AID 1990). It is filed as functional, cell-based.
Experiment [13] can be described thus: Luminescence Cell-Based Dose Response HTS to Identify Inhibitors of 5'UTR Stem-Loop Driven Prion Protein mRNA Translation in H4 Neuroglioblastoma Cells. [Related pubchem assays: 1827 (Project Summary), 1813 (Primary HTS)]. The class given is functional.
Experiment [14] can be described thus: inhibitors of SNCA 5'UTR-driven reporter translation, confirmation, H4 neuroglioma cells, luminescence (AID 1988). The class given is functional, cell-based.
Experiment [15] is described as follows: Luminescence Cell-Based Dose Retest to Confirm Inhibitors of Cancer Stem Cells. [Related pubchem assays (depositor defined):AID2717, AID2721]. The class given is functional. To be noted: Homo sapiens.
Experiment [16] concerns the target Lysine-specific demethylase 4C (Homo sapiens, UniProt Q9H3R0). Briefly: GASC-1 (JMJD2C) histone demethylase inhibitors, dose response, biochemical, DELFIA europium, cherry-picked samples (AID 488835). It is filed as functional.

The source made the active and inactive calls.

T1 sequence (P01375 whole entry, the tested form may be a part): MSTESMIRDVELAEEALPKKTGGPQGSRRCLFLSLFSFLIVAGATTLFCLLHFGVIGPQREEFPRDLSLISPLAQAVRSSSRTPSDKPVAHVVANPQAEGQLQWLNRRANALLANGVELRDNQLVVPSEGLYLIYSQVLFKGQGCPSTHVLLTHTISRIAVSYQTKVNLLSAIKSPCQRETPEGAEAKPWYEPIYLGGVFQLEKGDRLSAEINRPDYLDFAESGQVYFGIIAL
Chain of Nucleotide-binding oligomerization domain-containing protein 2 (Q9HC29 whole entry, the tested form may be a part): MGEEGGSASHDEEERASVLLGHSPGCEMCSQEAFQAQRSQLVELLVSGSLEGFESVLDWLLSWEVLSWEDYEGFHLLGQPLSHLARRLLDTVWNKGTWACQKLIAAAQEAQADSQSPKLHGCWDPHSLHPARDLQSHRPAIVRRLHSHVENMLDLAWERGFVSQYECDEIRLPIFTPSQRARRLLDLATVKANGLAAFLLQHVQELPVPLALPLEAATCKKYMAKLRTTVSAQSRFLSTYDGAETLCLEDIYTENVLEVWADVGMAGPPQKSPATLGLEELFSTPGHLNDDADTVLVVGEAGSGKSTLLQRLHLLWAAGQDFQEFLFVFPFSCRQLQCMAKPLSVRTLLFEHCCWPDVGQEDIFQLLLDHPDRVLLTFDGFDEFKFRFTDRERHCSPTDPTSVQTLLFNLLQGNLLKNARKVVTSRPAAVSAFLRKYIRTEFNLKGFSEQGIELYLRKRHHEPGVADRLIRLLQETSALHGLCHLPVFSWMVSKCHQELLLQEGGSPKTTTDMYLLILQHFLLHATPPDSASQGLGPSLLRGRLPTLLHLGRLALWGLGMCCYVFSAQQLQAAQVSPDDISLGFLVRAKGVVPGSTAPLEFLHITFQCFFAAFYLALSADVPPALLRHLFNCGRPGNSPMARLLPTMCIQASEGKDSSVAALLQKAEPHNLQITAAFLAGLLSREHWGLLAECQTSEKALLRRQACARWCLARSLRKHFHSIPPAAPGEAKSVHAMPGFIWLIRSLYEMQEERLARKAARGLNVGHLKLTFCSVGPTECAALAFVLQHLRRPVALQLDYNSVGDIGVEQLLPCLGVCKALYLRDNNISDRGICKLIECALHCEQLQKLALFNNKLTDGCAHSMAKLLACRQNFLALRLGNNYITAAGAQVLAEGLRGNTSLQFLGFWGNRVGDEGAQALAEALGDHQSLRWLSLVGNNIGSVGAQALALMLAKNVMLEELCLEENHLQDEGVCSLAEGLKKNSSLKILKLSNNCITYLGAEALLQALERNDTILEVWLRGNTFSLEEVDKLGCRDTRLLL
Chain of Lysine-specific demethylase 4C (Q9H3R0 whole entry): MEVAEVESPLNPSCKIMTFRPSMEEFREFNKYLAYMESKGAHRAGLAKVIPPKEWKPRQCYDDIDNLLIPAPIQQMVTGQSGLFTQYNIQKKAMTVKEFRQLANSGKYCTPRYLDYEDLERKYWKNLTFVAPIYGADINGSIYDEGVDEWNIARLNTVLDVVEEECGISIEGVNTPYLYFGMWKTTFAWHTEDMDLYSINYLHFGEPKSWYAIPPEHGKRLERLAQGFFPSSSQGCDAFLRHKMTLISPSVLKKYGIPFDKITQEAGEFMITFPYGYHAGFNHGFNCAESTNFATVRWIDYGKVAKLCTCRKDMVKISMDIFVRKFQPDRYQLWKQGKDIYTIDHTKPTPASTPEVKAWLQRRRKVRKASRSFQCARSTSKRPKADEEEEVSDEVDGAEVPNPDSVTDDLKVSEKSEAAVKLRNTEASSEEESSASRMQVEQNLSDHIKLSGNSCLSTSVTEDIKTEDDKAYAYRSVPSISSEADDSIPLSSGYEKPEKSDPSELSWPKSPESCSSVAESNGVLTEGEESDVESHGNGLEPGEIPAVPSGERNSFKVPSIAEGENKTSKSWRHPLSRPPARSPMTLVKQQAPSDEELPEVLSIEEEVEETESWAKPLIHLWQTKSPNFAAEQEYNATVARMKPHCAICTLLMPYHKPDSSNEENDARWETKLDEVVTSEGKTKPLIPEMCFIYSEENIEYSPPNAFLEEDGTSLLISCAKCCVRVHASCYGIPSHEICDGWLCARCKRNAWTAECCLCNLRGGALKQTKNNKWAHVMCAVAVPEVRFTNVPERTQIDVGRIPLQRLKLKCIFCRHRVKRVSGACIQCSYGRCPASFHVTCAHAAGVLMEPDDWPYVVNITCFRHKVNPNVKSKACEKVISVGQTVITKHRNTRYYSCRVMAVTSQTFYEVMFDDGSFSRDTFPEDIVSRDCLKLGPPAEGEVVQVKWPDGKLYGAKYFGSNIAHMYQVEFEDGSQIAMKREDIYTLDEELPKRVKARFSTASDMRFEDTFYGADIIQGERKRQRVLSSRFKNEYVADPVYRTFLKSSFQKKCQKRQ
Chain of Cytochrome P450 2D6 (P10635 whole entry): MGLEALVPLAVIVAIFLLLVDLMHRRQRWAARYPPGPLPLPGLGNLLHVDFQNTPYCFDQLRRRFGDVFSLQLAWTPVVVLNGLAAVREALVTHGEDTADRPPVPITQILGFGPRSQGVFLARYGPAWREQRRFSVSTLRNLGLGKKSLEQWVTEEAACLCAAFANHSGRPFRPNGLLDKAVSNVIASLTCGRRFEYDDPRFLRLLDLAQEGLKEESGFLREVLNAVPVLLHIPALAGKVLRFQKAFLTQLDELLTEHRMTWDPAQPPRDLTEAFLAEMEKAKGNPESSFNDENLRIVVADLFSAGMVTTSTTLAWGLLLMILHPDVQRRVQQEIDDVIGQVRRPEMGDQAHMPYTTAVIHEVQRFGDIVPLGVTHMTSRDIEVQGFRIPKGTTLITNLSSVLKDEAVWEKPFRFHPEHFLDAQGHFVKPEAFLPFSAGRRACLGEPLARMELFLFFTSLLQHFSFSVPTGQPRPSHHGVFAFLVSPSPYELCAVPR

As to `CC1Cc2cc(S(=O)(=O)N3CCN(c4ccc([N+](=O)[O-])cc4)CC3)ccc2N1C(=O)C1CC1` (stereo unspecified), the IC50 at Tumor necrosis factor [1] is 0.236 µM (active); in experiment [2] it was 0.26 µM (active); with HEK293 [3] it was 15.2 µM (active).
`Cc1ccc(-c2nnn3c2nc(Cl)c2ccccc23)cc1`: the IC50 in the experiment with Vero [4] was > 25 µM (active). In the experiment on Vero [5], the CC50 was 18.4 µM (active).
For the molecule `CC(C)(C)n1nnnc1C(c1cccnc1)N(Cc1ccccc1)Cc1ccco1` (stereo unspecified), the AC50 is 75.8 µM (active) in the experiment with HeLa, 0.592 µM (active) on ORF 73 and 31.6 µM (inconclusive) at Cytochrome P450 2D6. Also, the EC50 in the experiment on HEK293 [6] and with HEK293 [7] was > 59.6 µM (inactive) in each case.
For `COc1ccc(-c2cc(N)n(S(=O)(=O)c3ccc(F)c(C)c3)n2)cc1`, the IC50 in experiment [8] was > 20 µM (inactive); at Tumor necrosis factor [9] it was 19.9 µM (active); in the experiment on HEK293 [10], > 20 µM (inactive); in [11], > 20 µM (inactive).
For `Cc1cccc(N/N=C(\C(N)=O)C2=NC(C)(C)Cc3ccccc32)c1`, the EC50 was 3.43 µM (active) in experiment [12], 13.1 µM (active) in [13] and 20.2 µM (active) in experiment [14]. Moreover, the AC50 in experiment [15] is 9.41 µM (active). Besides, the IC50 in the experiment with Vero [4] is > 25 µM (active). For the same molecule, the CC50 with Vero [5] is > 25 µM (active).
With `CCCN(C(=O)Cc1ccc(S(=O)(=O)N2CCOCC2)s1)c1c(N)n(Cc2ccccc2)c(=O)[nH]c1=O`, the AC50 in [16] is 39.2 µM (active).

As a reminder, the IC50 is the concentration that gives 50% inhibition. For orientation: CC50 means the concentration that lowers cell viability or growth by half. In general, AC50 refers to the concentration giving half of the maximal activity seen. The EC50 is the concentration giving half of the maximal effect.

These data come from ChEMBL document CHEMBL1201862, “PubChem BioAssay data set” (2004).
